Data as given in US9133138B2, “Use of a quinazoline compound in preparing a medicament against flaviviridae virus” (priority 2010, dated 2015).
pIC50: −log10 of the molar value. Like-named read-outs stand apart in the source and are kept apart here.

Assays:
Hepatitis C virus = assay: Huh7.5.1-HCV determination (J399EM NS5A-EGFP fluorescence); format: cell-based
Excerpt: (§1) The Inhibitive Activity Test of the Quinazoline Compounds of the Present Invention Against Dengue Virus Serotype II and Hepatitis C Virus of Flaviviridae:
(§2) The test results of the inhibitive activity of the quinazoline compounds of the present invention against dengue virus serotype II and Hepatitis C virus of Flaviviridae are listed in table 1.
Huh7.5.1-HCV Determination:
Huh7.5.1 cell, which is currently the only cell model which can be in vitro infected by HCV viruses, can be infected by HCV viruses in vitro, and generates infective progeny viruses. J399EM is a HCV full-length mutant strain transfected by EGFP, and can generate viruses which have the same infectivity as wild-type JFH-1. Meanwhile, NS5A-EGFP fusion protein fluorescence can be observed directly in the infected cells by inserting the EGFP coding sequence into NS5A region. In this experiment, Huh7.5.1 cells were inoculated on a 96-well plate and cultured under 5% CO2 at 37° C. for 24 h. Huh7.5.1 cells were infected by J399EM virus supernatant (moi≈0.1). Meanwhile, cell control wells free from infection were included. The infected cells were washed with PBS after 8 h infection. Samples with different concentrations were added into Huh7.5.1 cells infected by J399EM viruses. Each concentration was set double wells, and control well without sample was included. The tested samples were diluted to six gradient concentrations and added respectively, and the cells were cultured for another 72 h. After the cells were treated by the samples for 72 hours, the relative intensity of fluorescence (RFU) was recorded at an excitation wavelength of 488 nm and an emission wavelength of 516 nm on a fluorescent ELISA Reader to detect the inhibition effect of the samples against HCV. The inhibition rate against HCV virus was calculated according to equation.
(§3) The inhibitive effect of the compounds on the copy number of the viruses in the culture supernatant of the BHK infected by DV2 directly reflects the inhibitive effect of the compounds against the generation of progeny viruses. In the HCV detection, the inhibitive effect of the compounds against intracellular replication of the HCV viruses can be visually determined via fluoroscopy. Meanwhile, as the only cell model which can currently be infected in vitro, Huh7.5.1 cell model infected by HCV viruses can maximumly reproduce the infection and replication process of Hepatitis C virus in vivo.

dengue virus serotype II = assay: BHK-DV2 replication determination (qPCR of viral genome copy number in culture supernatant); format: cell-based; details: 96 h, BHK cells infected with DV2 (MOI=0.05), 4 days culture, viral RNA copy number in supernatant by qPCR
Experimental: as §1, §2
BHK-DV2-Replication Determination:
BHK cells were inoculated on a 96-well plate. 24 hours later, DV2 viruses were added to infect for 2 h (MOI=0.05), and then viral liquid was washed away. After fresh culture medium was replaced, compounds with different concentrations were added respectively, including infection control without addition of compounds and normal MK control free from infection. After 4 days culture, the supernatant of culture fluid was sucked and centrifuged at 1000RCF for 5 min to remove the cell precipitate. Virus RNA was extracted from the supernatant by using a kit, and then reverse transcriped to be as cDNA, which was evaluated by qPCR method to determine the copy number of the virogene group in the supernatant.
as §3

[1] = Hepatitis C virus, Huh-7.5.1, 72 h, read-out: Huh7.5.1-HCV (replication) IC50

SMILES | pIC50 (Hepatitis C virus; Hepatitis C virus, read-out: half effective inhibitive concentration against HCV virus tested in vitro) | pIC50 (dengue virus serotype II) | pIC50 (Hepatitis C virus; [1]) | pIC50 (Hepatitis C virus; common control compounds, HCV in vitro, read-out: half effective inhibitive concentration against HCV virus tested in vitro)
NC(=O)c1ncn([C@@H]2O[C@H](CO)[C@@H](O)[C@H]2O)n1 [Ribavirin, reference compound] | 4.70 |  |  | 
COc1cccc2nc(N)nc(N)c12 [Yhhu-0967, 5-methoxy-2,4-diaminoquinazoline] |  | 6.12 | 5.24 | 
Nc1nc(N)c2c(Oc3ccc(Cl)cc3)cccc2n1 [Yhhu-0968, 5-(4-chlorophenoxy)-2,4-diamino quinazoline] |  | < 5.30 |  | 
COc1ccccc1Oc1cccc2nc(N)nc(N)c12 [Yhhu-0969, 5-(2-methoxyphenoxy)-2,4-diaminoquinazoline] |  | 5.95 |  | 
Nc1nc(N)c2c(Oc3ccccc3)cccc2n1 [Yhhu-0970, 5-phenoxy-2,4-diaminoquinazoline] |  | 6.37 | 5.50 | 
CC(C)(C)c1ccc(Oc2cccc3nc(N)nc(N)c23)cc1 [Yhhu-1035, 5-(4-tert-butylphenoxy)-2,4-diaminoquinazoline] |  | 5.71 | 5.32 | 
CC(C)(C)Oc1cccc2nc(N)nc(N)c12 [Yhhu-1036, 5-tert-butoxy-2,4-diaminoquinazoline] |  | 8.05 | 5.91 | 
Nc1nc(N)c2c(OCCN3CCCC3)cccc2n1 [Yhhu-1041, 5-(2-(1-pyrrolidinyl)ethoxy)-2,4-diaminoquinazoline] |  | 5.15 | 4.91 | 
Nc1nc(N)c2c(OCc3ccccc3)cccc2n1 [Yhhu-1046, 5-benzyloxy-2,4-diaminoquinazoline] |  | 6.47 | 5.63 | 
Nc1nc(N)c2c(Oc3cccc(Cl)c3)cccc2n1 [Yhhu-1053, 5-(3-chlorophenoxy)-2,4-diamino quinazoline] |  | 6.42 | 6.10 | 
Nc1nc(N)c2c(OC3CCCC3)cccc2n1 [Yhhu-1056, 5-cyclopentyloxy-2,4-diaminoquinazoline] |  | < 4.60 | 6.01 | 
CCCCOc1cccc2nc(N)nc(N)c12 [Yhhu-1145, 5-n-butoxy-2,4-diaminoquinazoline] |  | 6.96 | 5.63 | 
Nc1nc(N)c2c(OC34CC5CC(CC(C5)C3)C4)cccc2n1 [Yhhu-1146, 5 (1-adamantyloxy)-2,4-diaminoquinazoline] |  | < 4.60 | 5.29 | 
Nc1nc(N)c2c(OC3CCCCC3)cccc2n1 [Yhhu-1147, 5-cyclohexyloxy-2,4-diaminoquinazoline] |  | 7.00 | 5.33 | 
Nc1nc(N)c2c(OCC(F)(F)F)cccc2n1 [Yhhu-1148, 5-(2,2,2-trifluoroethoxy-2,4-diaminoquinazoline] |  | 7.40 | 5.51 | 
CCOc1cccc2nc(N)nc(N)c12 [Yhhu-1149, 5-ethoxy-2,4-diaminoquinazoline] |  | 6.80 | 5.40 | 
Nc1ccc(Oc2cccc3nc(N)nc(N)c23)cc1 [Yhhu-1150, 5-(4-aminophenoxy)-2,4-diaminoquinazoline] |  | 6.31 | 5.14 | 
Nc1nc(N)c2c(OCc3cccnc3)cccc2n1 [Yhhu-1151, 5-(3-pyridinemethoxy)-2,4-diaminoquinazoline] |  | 6.37 | 5.11 | 
COc1ccc(Oc2cccc3nc(N)nc(N)c23)cc1 [Yhhu-1152, 5-(4-methoxyphenoxy)-2,4-diaminoquinazoline] |  | 5.51 | 4.61 | 
CCCCCCCCOc1cccc2nc(N)nc(N)c12 [Yhhu-1411, 5-n-octyloxy-2,4-diaminoquinazoline] |  | 6.74 | 5.80 | 
CC(C)CCOc1cccc2nc(N)nc(N)c12 [Yhhu-1412, 5-isoamyloxy-2,4-diaminoquinazoline] |  | 7.00 | 5.76 | 
CC(C)(C)COc1cccc2nc(N)nc(N)c12 [Yhhu-1413, 5-neooamyloxy-2,4-diaminoquinazoline] |  | 6.80 | 5.43 | 
COc1c(C)c2c(c(O)c1C/C=C(\C)CCC(=O)O)C(=O)OC2 [mycoplienolic acid, reference compound] |  |  |  | 5.90
